Activity calls are given as the source filed them. No cut-off for these calls is given here.
What was measured:
[1] = target: T1, Tyrosinase (Agaricus bisporus) (UniProt O42713); assay: Binding affinity to mushroom tyrosinase assessed as reduction in fluorescence intensity at 0 to 10 uM by fluorescence-spectrophotometric analysis; design: scale not given: the % may be the effect or the level left
T1 sequence (whole entry): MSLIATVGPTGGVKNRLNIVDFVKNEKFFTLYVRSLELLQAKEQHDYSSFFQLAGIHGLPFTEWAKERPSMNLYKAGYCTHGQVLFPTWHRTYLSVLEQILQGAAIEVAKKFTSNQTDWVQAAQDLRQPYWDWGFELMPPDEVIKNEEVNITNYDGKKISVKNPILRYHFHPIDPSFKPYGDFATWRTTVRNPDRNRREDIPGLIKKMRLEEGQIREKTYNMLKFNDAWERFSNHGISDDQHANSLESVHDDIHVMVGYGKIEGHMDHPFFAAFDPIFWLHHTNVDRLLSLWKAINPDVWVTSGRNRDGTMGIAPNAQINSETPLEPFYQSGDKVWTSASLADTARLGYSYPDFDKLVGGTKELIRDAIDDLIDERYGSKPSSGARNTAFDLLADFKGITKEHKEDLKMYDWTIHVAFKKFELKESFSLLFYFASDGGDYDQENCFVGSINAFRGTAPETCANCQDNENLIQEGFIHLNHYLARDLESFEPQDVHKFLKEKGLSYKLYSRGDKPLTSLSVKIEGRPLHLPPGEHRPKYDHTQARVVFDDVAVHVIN

[2] = target: T1, Tyrosinase (Agaricus bisporus); assay: Binding affinity to mushroom tyrosinase assessed as induction of red shift in spectra by fluorescence-spectrophotometric analysis
[3] = target: T2, Tyrosinase (Agaricus bisporus, UniProt O42713); assay: (§1) Inhibition of diphenolase activity of mushroom tyrosinase using L-DOPA as substrate by spectrophotometric analysis
T2 sequence (O42713 whole entry): T1 sequence (whole entry)

[4] = target: T1, Tyrosinase (Agaricus bisporus); assay: as §1
[5] = target: T2, Tyrosinase; assay: Mixed-type reversible inhibition of diphenolase activity of mushroom tyrosinase assessed as enzyme-substrate complex using L-DOPA as substrate by Lineweaver-Burk double reciprocal plot analysis
[6] = Binding affinity to L-DOPA assessed as decrease in maximum fluorescence emission intensity of L-DOPA at 48 uM by spectrophotometric analysis; design: scale not given: the % may be the effect or the level left
[7] = target: T1, Tyrosinase (Agaricus bisporus); assay: Binding affinity to mushroom tyrosinase assessed as reduction in fluorescence intensity by spectrophotometric analysis
[8] = Binding affinity to tyrosine assessed as decrease in maximum fluorescence emission intensity of tyrosine at 48 uM by spectrophotometric analysis; design: scale not given: the % may be the effect or the level left
[9] = target: T2, Tyrosinase; assay: Mixed-type reversible inhibition of diphenolase activity of mushroom tyrosinase using L-DOPA as substrate by Lineweaver-Burk double reciprocal-plot analysis

Activity [1]: 77.2%
Activity [2]: Active
IC50 [3]: 120 µM
inhibition [4]: Dose-dependent effect
Ki [5]: 222 µM
Activity [6]: 44.8%
Activity [7]: Dose-dependent effect
Activity [8]: 53.1%
Ki [9]: 703 µM
Compound: Oc1nc(-c2ccc(F)cc2)nc2ccccc12
